# Measurements from PMC10254170, “Diastereoselective Synthesis of the Borylated D-Galactose Monosaccharide 3-Boronic-3-Deoxy-D-Galactose and Biological Evaluation in Glycosidase Inhibition and in Cancer for Boron Neutron Capture Therapy (BNCT)” (Molecules, 2023).
# Like-named read-outs stand apart in the source and are kept apart here.
# What was measured:
# Format in all cases: biochemical
# [1] = biological target: T1, bovine liver β-glucuronidase (Bos taurus, UniProt A3KMY8); test: Glycosidase inhibition, bovine liver β-glucuronidase
# T1 construct: purchased Sigma-Aldrich Co; host or cells: bovine liver
# T1 sequence (A3KMY8 1-652): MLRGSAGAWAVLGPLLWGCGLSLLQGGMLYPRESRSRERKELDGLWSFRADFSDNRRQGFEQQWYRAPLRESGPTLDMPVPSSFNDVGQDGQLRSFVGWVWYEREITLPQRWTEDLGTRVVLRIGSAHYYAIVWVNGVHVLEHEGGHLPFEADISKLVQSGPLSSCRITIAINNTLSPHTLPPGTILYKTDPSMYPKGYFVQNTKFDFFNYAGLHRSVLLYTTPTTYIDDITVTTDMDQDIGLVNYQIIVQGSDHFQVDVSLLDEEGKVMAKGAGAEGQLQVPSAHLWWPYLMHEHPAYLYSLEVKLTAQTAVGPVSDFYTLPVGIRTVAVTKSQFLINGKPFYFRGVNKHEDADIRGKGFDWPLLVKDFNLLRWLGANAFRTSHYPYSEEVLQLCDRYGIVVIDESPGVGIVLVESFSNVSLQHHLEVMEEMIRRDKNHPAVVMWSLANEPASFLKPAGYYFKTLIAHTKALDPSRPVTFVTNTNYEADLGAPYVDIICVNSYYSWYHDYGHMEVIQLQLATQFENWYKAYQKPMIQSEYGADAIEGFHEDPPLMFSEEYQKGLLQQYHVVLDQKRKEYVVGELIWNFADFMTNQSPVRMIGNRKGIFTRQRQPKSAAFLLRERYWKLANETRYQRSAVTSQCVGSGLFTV
# Description: (§1) Glycosidase modulation studies need to explore selectivity as well as potency. Our drugs and controls are therefore screened against a panel of glycosidases in methanol (Table 1) to identify the glycosidase-related disease area(s), selectivity profile, and potency of biological action for each drug. The presence of organic boron covalently bonded to the drug structure also grants a reduced toxicity profile. Following the glycosidase inhibition range recommendations, an IC50 value >250 μm denotes weak inhibition, 100–249 μm denotes moderate inhibition, 10–99 μm good inhibition, 0.1–9 μm potent inhibition, and <0.1 μm very potent inhibition. […] Our boronated D-galactose 7 represents a novel lead in glycosidase inhibition.
# (§2) The glycosidases screened are the following: rice α-glucosidase, yeast α-glucosidase, Bacillus α-glucosidase, rat intestinal maltase α-glucosidase, almond β-glucosidase, bovine liver β-glucosidase, coffee beans α-galactosidase, bovine liver β-galactosidase, Jack bean α-mannosidase, snail β-mannosidase, Penicillium decumbens α-L-rhamnosidase, bovine kidney α-L-fucosidase, Eschierichia coli β-glucuronidase, bovine liver β-glucuronidase, porcine kidney trehalase, Aspergillus niger amyloglucosidase, and bovine kidney N-acetyl-β-glucosaminidase. The disease areas for each glycosidase are summarized in [1].
# (§3) The enzymes α-glucosidase (from yeast), β-glucosidases (from almond and bovine liver), α-galactosidase (from coffee beans), β-galactosidase (from bovine liver), α-mannosidase (from Jack bean), β-mannosidase (from snail), α-L-rhamnosidase (from Penicillium decumbens), α-L-fucosidase (from bovine kidney), trehalase (from porcine kidney), β-glucuronidases (from E. coli and bovine liver), amyloglucosidase (from A. niger), para-nitrophenyl glycosides, and various disaccharides were purchased from Sigma-Aldrich Co.
# (§4) Brush border membranes were prepared from the rat small intestine according to the method of Kessler et al. and were assayed at pH 6.8 for rat intestinal maltase using maltose. For rat intestinal maltase, porcine kidney trehalase, and A. niger amyloglucosidase activities, the reaction mixture contained 25 mM maltose and the appropriate amount of enzyme, and the incubations were performed for 10–30 min at 37 °C. The reaction was stopped by heating at 100 °C for 3 min. After centrifugation (600 g; 10 min), the resulting reaction mixture was added to the Glucose CII-test Wako (Wako Pure Chemical Ind., Osaka, Japan). The absorbance at 505 nm was measured to determine the amount of the released D-glucose. Other glycosidase activities were determined using an appropriate para-nitrophenyl glycoside as substrate at the optimum pH of each enzyme. The reaction mixture contained 2 mM of the substrate and the appropriate amount of enzyme. The reaction was stopped by the addition of 400 mM Na2CO3. The released para-nitrophenol was measured spectrometrically at 400 nm. All reactions run in methanol.
# almond β-glucosidase = test: Glycosidase inhibition, almond β-glucosidase; details: for inhibition %: in methanol
# Description: as §1, §2, §3, §4
# porcine kidney trehalase = biological target: T2, porcine kidney trehalase (Sus scrofa, UniProt I3LIR5); test: Glycosidase inhibition, porcine kidney trehalase
# T2 construct: purchased Sigma-Aldrich Co; host or cells: porcine kidney
# T2 sequence (I3LIR5 24-583): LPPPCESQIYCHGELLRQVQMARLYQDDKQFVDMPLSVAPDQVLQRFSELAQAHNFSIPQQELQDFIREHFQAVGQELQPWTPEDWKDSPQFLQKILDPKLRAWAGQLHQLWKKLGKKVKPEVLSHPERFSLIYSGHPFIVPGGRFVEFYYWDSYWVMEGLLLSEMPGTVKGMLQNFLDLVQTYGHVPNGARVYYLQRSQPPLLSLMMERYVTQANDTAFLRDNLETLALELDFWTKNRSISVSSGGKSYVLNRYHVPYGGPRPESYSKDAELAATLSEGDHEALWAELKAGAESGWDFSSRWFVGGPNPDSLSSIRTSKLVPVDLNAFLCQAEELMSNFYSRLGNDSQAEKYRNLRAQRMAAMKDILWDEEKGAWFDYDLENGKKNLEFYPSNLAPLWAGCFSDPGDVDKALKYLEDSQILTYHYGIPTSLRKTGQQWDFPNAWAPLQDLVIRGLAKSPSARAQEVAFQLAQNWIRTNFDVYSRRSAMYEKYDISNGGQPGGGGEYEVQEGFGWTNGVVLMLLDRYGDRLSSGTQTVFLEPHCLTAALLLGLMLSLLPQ
# Description: as §1, §2, §3, §4
# [2] = test system: Penicillium decumbens α-L-rhamnosidase; test: Glycosidase inhibition, Penicillium decumbens α-L-rhamnosidase; details: for inhibition %: in methanol
# Description: as §1, §2, §3, §4
# [3] = at 100 μM, in methanol, read-out: inhibition %
# [4] = at 100 μM, read-out: NI: No inhibition
# [5] = at 1000 μM, in methanol, read-out: inhibition %
# [6] = at 1000 μM, read-out: NI: No inhibition
compound,measurement,setting,value
"CC1(C)OCC(C2OC3OC(C)(C)OC3C2[B-]23OCC[NH+]2CCO3)O1 [Compound 6, 3-Deoxy-3-Boronodiethanolamine-1,2:5,6-Di-O-isopropylidene-α-D-galactofuranose]",inhibition at 100 µM,[1]; [3],12.4%
same,inhibition at 100 µM,[1]; [4],< 50%
same,NI: No inhibition,almond β-glucosidase; at 100 μM,NI (No inhibition (less than 50% inhibition at 100 μM))
same,inhibition %,almond β-glucosidase; at 100 μM,0.3%
same,inhibition at 100 µM,porcine kidney trehalase; [3],0%
same,inhibition at 100 µM,porcine kidney trehalase; [4],< 50%
same,NI: No inhibition,[2]; at 100 μM,NI (No inhibition (less than 50% inhibition at 100 μM))
same,inhibition %,[2]; at 100 μM,0.3%
N[C@@H](Cc1ccc(B(O)O)cc1)C(=O)O [^10B-BPA],NI: No inhibition,[1]; at 100 μM,NI (No inhibition (less than 50% inhibition at 100 μM))
same,inhibition %,"[1]; at 100 μM, in methanol",0%
same,NI: No inhibition,almond β-glucosidase; at 100 μM,NI (No inhibition (less than 50% inhibition at 100 μM))
same,inhibition %,almond β-glucosidase; at 100 μM,0%
same,NI: No inhibition,porcine kidney trehalase; at 100 μM,NI (No inhibition (less than 50% inhibition at 100 μM))
same,inhibition %,"porcine kidney trehalase; at 100 μM, in methanol",0%
same,NI: No inhibition,[2]; at 100 μM,NI (No inhibition (less than 50% inhibition at 100 μM))
same,inhibition %,[2]; at 100 μM,0%
"N[C@@H](Cc1ccc(B(O)O)cc1)C(=O)O [BPA, 4-borono-L-phenylalanine]",inhibition at 100 µM,[1]; [3],7.4%
same,inhibition at 100 µM,[1]; [4],< 50%
same,NI: No inhibition,almond β-glucosidase; at 100 μM,NI (No inhibition (less than 50% inhibition at 100 μM))
same,inhibition %,almond β-glucosidase; at 100 μM,0%
same,inhibition at 100 µM,porcine kidney trehalase; [3],0%
same,inhibition at 100 µM,porcine kidney trehalase; [4],< 50%
same,NI: No inhibition,[2]; at 100 μM,NI (No inhibition (less than 50% inhibition at 100 μM))
same,inhibition %,[2]; at 100 μM,0%
"OCC1OC(O)C(O)C(B(O)O)C1O [Compound 7, 3-Boronic-3-Deoxy-D-galactose]",inhibition at 1000 µM,[1]; [5],32.4%
same,inhibition at 1000 µM,[1]; [6],< 50%
same,NI: No inhibition,almond β-glucosidase; at 1000 μM,NI (No inhibition (less than 50% inhibition at 1000 μM))
same,inhibition %,almond β-glucosidase; at 1000 μM,1.3%
same,inhibition at 1000 µM,porcine kidney trehalase; [5],0.5%
same,inhibition at 1000 µM,porcine kidney trehalase; [6],< 50%
same,NI: No inhibition,[2]; at 1000 μM,NI (No inhibition (less than 50% inhibition at 1000 μM))
same,inhibition %,[2]; at 1000 μM,0%
Borocaptate sodium [BSH],NI: No inhibition,[1]; at 1000 μM,NI (No inhibition (less than 50% inhibition at 1000 μM))
same,inhibition %,"[1]; at 1000 μM, in methanol",19.6%
same,NI: No inhibition,almond β-glucosidase; at 1000 μM,NI (No inhibition (less than 50% inhibition at 1000 μM))
same,inhibition %,almond β-glucosidase; at 1000 μM,0%
same,NI: No inhibition,porcine kidney trehalase; at 1000 μM,NI (No inhibition (less than 50% inhibition at 1000 μM))
same,inhibition %,"porcine kidney trehalase; at 1000 μM, in methanol",4.2%
same,NI: No inhibition,[2]; at 1000 μM,NI (No inhibition (less than 50% inhibition at 1000 μM))
same,inhibition %,[2]; at 1000 μM,0.2%
